In publication PMC10485906, “Development of a Dihydroquinoline–Pyrazoline GluN2C/2D-Selective Negative Allosteric Modulator of the N-Methyl-D-aspartate Receptor” (ACS Chemical Neuroscience, 2023):

Assays:
α1-Glycine = target: T1, α1-Glycine (Rattus norvegicus, UniProt P07727); assay: Off-target, oocytes, glycine receptor; format: cell-based; conditions: 1 µM compound; 100 µM glycine
T1 construct: expressed in transfected cells; host or cells: Xenopus oocytes (cRNA injection)
Procedure: (§1) Analysis of Off-target Actions
(§2) Compound (S)-(-)-2i was tested at 1 µM for actions at glycine-activated GluN1/GluN3A (human GluN1-F484A,T518L/GluN3A referred to a GluN1-FA,TL/GluN3A) and rat GluN1-4a/GluN3B in the presence of 0.5 µM CGP-78608. cRNA injection ratios for GluN1/GluN3 were 1:2. Compound (S)-(-)- 2i was also tested for actions at AMPA (rat GluA1, rat GluA2, human GluA3-L531Y), kainate (rat GluK2), nicotinic acetylcholine (rat α7 and α4β2, cRNA ratio 1:1), GABAA (rat α1β2γ2S, cRNA ratio 1:1:1), GABAC (rat ρ1), glycine (rat α1), and purinergic (human P2X) receptors expressed in Xenopus oocytes. cRNA encoding the receptor subunits was synthesized from linear template cDNA using the mMessage mMachine kit (Ambion). Oocytes were injected with 1-5 ng cRNA in a 50 nL volume and incubated in Barth's solution at 15°C for 2-5 days prior to recording. GluK2-expressing oocyte were incubated in 1 mg/ml (10 µM) concanavalin-A for 10 min prior to recording. The cDNAs encoding GABAC and glycine subunits were provided by Dr. D. Weiss (University of Texas Health Science Center at San Antonio). cDNAs encoding nicotinic acetylcholine receptor subunits were provided by Drs. […]
(§3) GABA. […] Responses in presence of test compound were expressed as a percent of control. […]

α7-nACh = α7-nACh (Rattus norvegicus, UniProt Q05941); assay: Off-target, oocytes, nicotinic acetylcholine α7; format: cell-based; conditions: 1 µM compound; 300 µM acetylcholine
Procedure: as §1, §2, §3

42-nACh = 42-nACh (Rattus norvegicus, UniProt P09483+P12390); assay: Off-target, oocytes, nicotinic acetylcholine 42; format: cell-based; conditions: 1 µM compound; 10 µM acetylcholine
Procedure: as §1, §2, §3

hGluN1-FA,TL/hGluN3A = hGluN1-FA,TL/hGluN3A (Homo sapiens, UniProt Q05586+Q8TCU5, F484A/T518L); assay: Off-target, oocytes, GluN1/GluN3A; format: cell-based; conditions: 1 µM compound; 100 µM glycine
Procedure: as §1, §2, §3

Tsc1^± mice = assay: Acute epileptic mouse model, EEG recordings of seizures; format: in vivo
Procedure: All experiments were conducted in agreement with the requirements of the European Directive 2010/63/EU. Mice were housed in ventilated, light-tight, sound-isolated chambers under a standard 12:12 light/dark cycle (light on at […]) with food and water available ad libitum. C57BL/6J wild-type (Tsc1^+/+) females from Janvier Laboratories (France) were crossed with heterozygote Tsc1^± male mice with the genetic background B6;129S4-Tsc1^tm1.1Djk/Nci. The genotyping of pups issuing from this cross-breeding was performed on tail tissue samples at postnatal day P9. The study was conducted in Tsc1^± male mice at P14–16. Pups from at least three deliveries for each condition were studied to minimize the potential sampling bias.
The DQP derivative 2i was diluted in DMSO at a concentration of 100 mM before being added to 100 to 150 μL of saline solution and intraperitoneally injected in mice. Intraperitoneal injection was administered during the EEG recordings at three different concentrations: 7, 14, and 28 mg/kg to estimate the dose–response relationship.
Experiments were performed on postnatal days of P14 and P16 male Tsc1^± mice. Surgery was performed under isoflurane anesthesia and lidocaine analgesia. During recordings, the head was fixed to the frame of a stereotaxic apparatus by attached bars; animals were surrounded by a cotton nest and heated via a thermal pad (36.6–37.7 °C). A silver chloride reference electrode was placed in the cerebellum. EEG recordings were performed with nonanaesthetized head-restrained Tsc1^± mice. […] Recordings were analyzed offline using Clampfit (Molecular Devices, San Jose) and Origin (MicroCal, Northampton, MA) software. […] During EEG recordings, animals were monitored visually to determine the behavioral correlates of each electrographic epileptic discharge. […]

MDCK-MDR1 = test system: MDCK-MDR1; design: method as in PMID 23909910; conditions: cited from earlier work

T1 sequence (P07727 29-457): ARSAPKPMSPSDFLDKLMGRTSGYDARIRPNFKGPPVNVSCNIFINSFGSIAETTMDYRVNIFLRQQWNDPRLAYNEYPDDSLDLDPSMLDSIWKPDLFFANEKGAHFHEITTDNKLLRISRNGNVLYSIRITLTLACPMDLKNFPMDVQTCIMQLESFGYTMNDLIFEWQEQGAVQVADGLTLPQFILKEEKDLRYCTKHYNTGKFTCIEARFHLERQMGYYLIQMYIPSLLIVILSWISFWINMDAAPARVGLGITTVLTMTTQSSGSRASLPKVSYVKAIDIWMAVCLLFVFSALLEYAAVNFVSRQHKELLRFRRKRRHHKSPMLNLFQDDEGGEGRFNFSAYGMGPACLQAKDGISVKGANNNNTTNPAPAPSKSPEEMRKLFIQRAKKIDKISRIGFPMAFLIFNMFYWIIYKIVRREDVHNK
Sequence of hGluN1-FA,TL/hGluN3A (Q8TCU5 24-1115, other chains not shown): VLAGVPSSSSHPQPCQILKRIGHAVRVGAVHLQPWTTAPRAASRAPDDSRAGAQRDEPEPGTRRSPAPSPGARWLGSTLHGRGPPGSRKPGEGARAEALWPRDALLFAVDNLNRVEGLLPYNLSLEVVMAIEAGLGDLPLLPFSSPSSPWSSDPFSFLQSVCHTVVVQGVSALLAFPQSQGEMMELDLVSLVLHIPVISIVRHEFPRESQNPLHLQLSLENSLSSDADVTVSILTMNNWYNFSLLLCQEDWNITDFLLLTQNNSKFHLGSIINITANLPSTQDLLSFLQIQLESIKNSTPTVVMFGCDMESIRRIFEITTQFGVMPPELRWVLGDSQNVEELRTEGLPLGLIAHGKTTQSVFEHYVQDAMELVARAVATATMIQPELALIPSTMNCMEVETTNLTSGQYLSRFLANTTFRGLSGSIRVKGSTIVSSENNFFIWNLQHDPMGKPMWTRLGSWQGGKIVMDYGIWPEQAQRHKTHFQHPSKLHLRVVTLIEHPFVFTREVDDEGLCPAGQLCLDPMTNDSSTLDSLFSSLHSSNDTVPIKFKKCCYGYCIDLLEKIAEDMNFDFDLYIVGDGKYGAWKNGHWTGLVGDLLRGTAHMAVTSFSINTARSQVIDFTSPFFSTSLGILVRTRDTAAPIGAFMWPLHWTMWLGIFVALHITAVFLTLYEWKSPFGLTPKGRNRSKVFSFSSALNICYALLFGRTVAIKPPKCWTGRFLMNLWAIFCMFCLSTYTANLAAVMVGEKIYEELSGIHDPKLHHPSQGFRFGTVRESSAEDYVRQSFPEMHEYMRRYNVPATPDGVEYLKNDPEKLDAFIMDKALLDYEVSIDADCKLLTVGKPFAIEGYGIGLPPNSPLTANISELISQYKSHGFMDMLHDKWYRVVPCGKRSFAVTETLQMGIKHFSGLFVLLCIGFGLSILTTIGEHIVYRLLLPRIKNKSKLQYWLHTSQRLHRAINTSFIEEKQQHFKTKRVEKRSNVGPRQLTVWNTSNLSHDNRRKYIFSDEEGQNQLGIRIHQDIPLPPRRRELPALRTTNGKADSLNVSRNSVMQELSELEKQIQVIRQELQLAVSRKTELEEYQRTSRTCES
Sequence of α7-nACh (Q05941 23-502): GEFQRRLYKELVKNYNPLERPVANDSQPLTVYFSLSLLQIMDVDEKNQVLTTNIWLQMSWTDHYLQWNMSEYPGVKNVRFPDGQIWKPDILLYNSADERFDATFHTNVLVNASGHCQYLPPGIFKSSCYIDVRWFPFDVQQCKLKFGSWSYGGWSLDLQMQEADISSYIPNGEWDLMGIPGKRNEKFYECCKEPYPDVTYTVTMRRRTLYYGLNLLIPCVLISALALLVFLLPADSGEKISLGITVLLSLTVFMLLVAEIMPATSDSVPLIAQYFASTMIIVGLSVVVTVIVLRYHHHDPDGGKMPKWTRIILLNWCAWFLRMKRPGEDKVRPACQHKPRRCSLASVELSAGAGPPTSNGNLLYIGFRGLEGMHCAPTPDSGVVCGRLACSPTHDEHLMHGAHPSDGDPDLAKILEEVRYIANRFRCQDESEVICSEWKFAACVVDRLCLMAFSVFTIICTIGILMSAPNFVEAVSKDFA
Sequence of 42-nACh (P09483 31-630): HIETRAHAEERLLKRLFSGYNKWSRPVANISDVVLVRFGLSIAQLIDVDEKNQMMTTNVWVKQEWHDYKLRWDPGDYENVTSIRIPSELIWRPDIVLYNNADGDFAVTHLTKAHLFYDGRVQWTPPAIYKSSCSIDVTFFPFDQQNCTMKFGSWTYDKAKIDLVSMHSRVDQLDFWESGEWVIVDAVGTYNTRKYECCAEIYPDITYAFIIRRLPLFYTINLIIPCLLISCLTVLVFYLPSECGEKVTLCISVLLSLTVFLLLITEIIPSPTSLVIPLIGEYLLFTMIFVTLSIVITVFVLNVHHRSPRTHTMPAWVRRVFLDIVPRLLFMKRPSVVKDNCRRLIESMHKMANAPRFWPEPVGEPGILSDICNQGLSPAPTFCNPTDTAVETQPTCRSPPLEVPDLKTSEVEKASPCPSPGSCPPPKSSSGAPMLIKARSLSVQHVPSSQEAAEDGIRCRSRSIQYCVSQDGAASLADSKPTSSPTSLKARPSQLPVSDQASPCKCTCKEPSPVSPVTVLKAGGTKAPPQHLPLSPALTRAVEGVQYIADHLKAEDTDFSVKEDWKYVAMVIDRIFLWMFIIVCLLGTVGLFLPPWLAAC
Sequence of 42-nACh (P12390 25-500): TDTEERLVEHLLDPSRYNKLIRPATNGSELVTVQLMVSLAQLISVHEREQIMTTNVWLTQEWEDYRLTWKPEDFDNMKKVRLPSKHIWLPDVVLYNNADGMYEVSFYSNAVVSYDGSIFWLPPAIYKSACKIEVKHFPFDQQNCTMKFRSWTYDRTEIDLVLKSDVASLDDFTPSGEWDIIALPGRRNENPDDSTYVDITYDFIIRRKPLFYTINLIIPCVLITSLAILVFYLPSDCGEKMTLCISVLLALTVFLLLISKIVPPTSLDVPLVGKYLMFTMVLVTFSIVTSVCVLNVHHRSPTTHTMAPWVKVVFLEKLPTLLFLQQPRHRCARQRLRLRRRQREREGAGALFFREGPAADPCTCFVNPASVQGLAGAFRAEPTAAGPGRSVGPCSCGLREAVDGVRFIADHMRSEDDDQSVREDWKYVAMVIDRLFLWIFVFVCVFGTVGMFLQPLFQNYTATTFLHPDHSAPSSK

## O=C(O)CC(F)(F)C(=O)N1N=C(c2c(-c3ccc(Cl)cc3)c3ccccc3[nH]c2=O)C[C@H]1c1ccc(Cl)cc1 [(S)-(−)-2i]
α1-Glycine
  % control α1-Glycine: 103 ± 2.4%
α7-nACh
  % control α7-nACh: 105 ± 13.5%
42-nACh
  % control 42-nACh: 91 ± 2.1%
hGluN1-FA,TL/hGluN3A
  % control hGluN1-FA,TL/hGluN3A: 95 ± 2.3%

## O=C(O)CC(F)(F)C(=O)N1N=C(c2c(-c3ccc(Cl)cc3)c3ccccc3[nH]c2=O)CC1c1ccc(Cl)cc1 (stereo not drawn) [2i]
Tsc1^± mice; 14 mg/kg IP, male Tsc1^± mice P14–16, neocortical layers 2/3 and 4
  effect on spontaneous electrographic seizures: significantly reduced spontaneous electrographic seizures
Tsc1^± mice; 28 mg/kg IP, male Tsc1^± mice P14–16
  effect on epileptic events: epileptic events stopped immediately
Tsc1^± mice; murine model of TSC-induced epilepsy, abstract
  effect on number of epileptic events: significantly reduced the number of epileptic events

## O=C(O)CCC(=O)N1N=C(c2c(-c3ccc(Cl)cc3)c3ccccc3[nH]c2=O)CC1c1ccc(Cl)cc1 (stereo not drawn) [2a]
MDCK-MDR1; cell-membrane permeability
  Papp: 0.47 × 10^–6 cm/s
MDCK-MDR1
  P-glycoprotein (P-gp)-mediated efflux ratio (ER): 55
